Assay results published in patent US3965109A, “Certain aryl amino pyridines” (priority 1971, dated 1976).

Key:
Assay type in all cases: in vivo
[1] = tested on: Pieris brassicae (cabbage white caterpillars); assay: Pest toxicity test; conditions: 0.1% by weight, 2 days
Aphis fabae = assay: Pest toxicity test; conditions: 0.1% by weight; broad bean; 2 days
[2] = tested on: Phaedon cochleariae (mustard beetles); assay: Pest toxicity test
[3] = tested on: Tetranychus telarius (red spider mites, eggs); assay: Pest toxicity test; conditions: 0.1% by weight; French bean; 3 days
[4] = tested on: Musca domestica (houseflies); assay: Pest toxicity test, contact test; conditions: 0.1% by weight; milk/sugar; 2 days; flies sprayed directly
[5] = tested on: Aedes aegypti (mosquito adults); assay: Pest toxicity test; conditions: 0.01% by weight; plywood; 1 day
[6] = tested on: Tetranychus telarius (red spider mites, adults); assay: Pest toxicity test; conditions: 0.1% by weight; French bean; 3 days
[7] = tested on: Plutella maculipennis (diamond back moth larvae); assay: Pest toxicity test
[8] = tested on: Aedes aegypti (mosquito larvae); assay: Pest toxicity test; conditions: for Mortality grading (kill): 0.01% by weight, water, 1 day
Megoura viceae = assay: Pest toxicity test; conditions: 0.1% by weight; broad bean; 2 days
[9] = tested on: Phytophthora infestans (tomato); conditions: 100 ppm spray and drench; 3 days
[10] = tested on: Plasmopara viticola (vine); assay: Fungicidal test against foliar disease C (foliage spray plus soil drench); conditions: 100 ppm spray and drench; 10 days
Uncinula necator (vine) = assay: Fungicidal test against foliar disease D (foliage spray plus soil drench); conditions: 100 ppm spray and drench; 10 days
[11] = tested on: Piricularia oryzae (rice); conditions: 100 ppm spray and drench; 7 days
[12] = tested on: Puccinia recondita (wheat); assay: Fungicidal test against foliar disease A (foliage spray plus soil drench); conditions: 100 ppm spray and drench; 10 days
Rice = assay: Further herbicidal test, various rates; conditions: 5 lb/acre; scale 0 to 5 (complete kill)
Pea = assay: Further herbicidal test, various rates; conditions: 5 lb/acre; scale 0 to 5 (complete kill)
Kale = assay: Further herbicidal test, various rates; conditions: 5 lb/acre; scale 0 to 5 (complete kill)
Sugar beet = assay: Further herbicidal test, various rates; conditions: 5 lb/acre; scale 0 to 5 (complete kill)
Oat = assay: Further herbicidal test, various rates; conditions: 5 lb/acre; scale 0 to 5 (complete kill)
Barley = assay: Further herbicidal test, various rates; conditions: 5 lb/acre; scale 0 to 5 (complete kill)
Maize = assay: Herbicidal test, pre- and post-emergence
Wheat = assay: Herbicidal test, pre- and post-emergence
Lettuce = assay: Herbicidal test, pre- and post-emergence
Tomato = assay: Herbicidal test, pre- and post-emergence
Carrot = assay: Further herbicidal test, various rates; conditions: 5 lb/acre; scale 0 to 5 (complete kill)
Onion = assay: Further herbicidal test, various rates; conditions: 5 lb/acre; scale 0 to 5 (complete kill)
[13] = 0.1% by weight, mustard/paper, 2 days
[14] = 10 lb/acre (11.2 kg/ha), scale 0 (no effect) to 3 (complete kill)
[15] = 10 kg/ha, scale 0 to 3 (complete kill)

In the case of `Fc1nc(F)c(Cl)c(Nc2ccccc2)c1Cl` [Compound 2, 4-Anilino-3,5-dichloro-2,6-difluoropyridine], the “Mortality grading (kill)” value [1] is reported as 0 (O represents less than 30% kill), the “Mortality grading (kill)” value (Aphis fabae) is reported as 0 (O represents less than 30% kill) and the “Mortality grading (kill)” value [2, 13] is reported as 0 (O represents less than 30% kill). The “Mortality grading (kill)” value [3] was 0 (O represents less than 30% kill), the “Mortality grading (kill), contact test” value [4] was 0 (O represents less than 30% kill) and the “Mortality grading (kill)” value [5] was 0 (O represents less than 30% kill). The “Mortality grading (kill)” value [6] was 3 (3 represents over 90% kill), the “Mortality grading (kill)” value [7, 13] was 0 (O represents less than 30% kill) and the “Mortality grading (kill)” value [8] was 0 (O represents less than 30% kill). For the same molecule, the “Mortality grading (kill)” value (Megoura viceae) was 0 (O represents less than 30% kill).
In the case of `Fc1nc(F)c(Cl)c(Nc2c(Cl)cc(Cl)cc2Cl)c1Cl` [Compound 7, 3,5-Dichloro-2,6-difluoro-4(2,4,6-trichloroanilino)pyridine], the “Amount of disease grading, disease B” value [9] is reported as 0 (61 to 100), the “Amount of disease grading, disease C” value [10] is reported as 0 (61 to 100) and the “Amount of disease grading, disease D” value (Uncinula necator (vine)) is reported as 0 (61 to 100). The “Amount of disease grading, disease E” value [11] was 0 (61 to 100), the “Amount of disease grading, disease A” value [12] was 2 (6 to 25) and the “abnormal growth effects in larva of mosquitos” value ([8]; in vivo) was “abnormal growth effects”.
In the case of `Fc1nc(F)c(Cl)c(Nc2c(F)c(F)c(F)c(F)c2F)c1Cl` [Compound 10, 3,5-Dichloro-2,6-difluoro-4(pentafluoroanilino)pyridine], the “Damage to plants, post-emergence” value (Rice) is reported as 0, the “Damage to plants, post-emergence” value (Pea) is reported as 0 and the “Damage to plants, pre-emergence” value (Pea) is reported as 3. The “Mortality grading (kill)” value [1] was 0 (O represents less than 30% kill), the “Mortality grading (kill)” value (Aphis fabae) was 0 (O represents less than 30% kill) and the “Damage to plants, post-emergence” value (Kale) was 3. The “Damage to plants, pre-emergence” value (Kale) was 1, the “Damage to plants, post-emergence” value (Sugar beet) was 3 and the “Damage to plants, pre-emergence” value (Sugar beet) was 0. The “Mortality grading (kill)” value ([2]; in vivo) was 0 (key: O represents less than 30% kill; 1 represents 30 - 49% kill; 2 represents 60 - 90% kill; 3 represents over 90% kill; C indicates a chemosterilant effect.; A indicates an antifeeding effect.), the “Damage to plants, post-emergence” value (Oat) was 0 and the “Damage to plants, pre-emergence” value (Oat) was 0. The “Damage to plants, post-emergence” value (Barley) was 0, the “Damage to plants, pre-emergence” value (Barley) was 3 and the “Damage to plants, post-emergence” value (Maize; [14]) was 0. For the same molecule, the “Damage to plants, pre-emergence” value (Maize; [14]) was 0, the “Mortality grading (kill), contact test” value [4] was 0 (O represents less than 30% kill) and the “Mortality grading (kill)” value [5] was 2 (2 represents 60 - 90% kill). The “Damage to plants, post-emergence” value (Wheat; [14]) was 1, the “Damage to plants, pre-emergence” value (Wheat; [14]) was 0 and the “Mortality grading (kill)” value [6] was 3 (3 represents over 90% kill). For the same molecule, the “Damage to plants, post-emergence” value (Lettuce; [14]) was 3, the “Damage to plants, pre-emergence” value (Lettuce; [14]) was 2 and the “Damage to plants, post-emergence” value (Tomato; [14]) was 3. The “Damage to plants, pre-emergence” value (Tomato; [14]) was 1, the “Damage to plants, post-emergence” value (Carrot) was 2 and the “Damage to plants, pre-emergence” value (Carrot) was 1. The “Mortality grading (kill)” value ([7]; in vivo) was 0 (key: O represents less than 30% kill; 1 represents 30 - 49% kill; 2 represents 60 - 90% kill; 3 represents over 90% kill; C indicates a chemosterilant effect.; A indicates an antifeeding effect.), the “Damage to plants, post-emergence” value (Onion) was 2 and the “Damage to plants, pre-emergence” value (Onion) was 0. For the same molecule, the “Mortality grading (kill)” value [8] was 2 (2 represents 60 - 90% kill) and the “Mortality grading (kill)” value (Megoura viceae) was 0 (O represents less than 30% kill).
In the case of `Fc1nc(F)c(Cl)c(Nc2cccc(C(F)(F)F)c2)c1Cl` [Compound 17, 3,5-Dichloro-2,6-difluoro-4(3-trifluoromethylanilino)pyridine], the “Amount of disease grading, disease B” value [9] is reported as 1 (26 to 60), the “Amount of disease grading, disease C” value [10] is reported as 3 (0 to 5) and the “Amount of disease grading, disease D” value (Uncinula necator (vine)) is reported as 0 (61 to 100). For the same molecule, the “Amount of disease grading, disease E” value [11] was 0 (61 to 100) and the “Amount of disease grading, disease A” value [12] was 0 (61 to 100).
`CN(C)S(=O)(=O)c1cc(Cl)c(Nc2c(Cl)c(F)nc(F)c2Cl)cc1Cl` [Compound 31, 3,5-Dichlor-2,6-difluoro-4(2,5-dichlor-4-N,N-dimethylsulphamoylanilino)pyridine] was tested, and the “Amount of disease grading, disease B (Table 4)” value (“Amount … disease B (Table 4)” below) [9] was 0 (61 to 100), the “Amount of disease grading, disease C (Table 4)” value (“Amount … disease C (Table 4)” below) [10] was 3 (0 to 5) and the “Amount of disease grading, disease D (Table 4)” value (“Amount … disease D (Table 4)” for short) (Uncinula necator (vine)) was 3 (0 to 5). For the same molecule, the “Amount of disease grading, disease E (Table 4)” value (from here on “Amount … disease E (Table 4)”) [11] was 0 (61 to 100) and the “Amount of disease grading, disease A (Table 4)” value (from here on “Amount … disease A (Table 4)”) [12] was 2 (6 to 25).
For `O=[N+]([O-])c1ccc(Nc2c(Cl)c(F)nc(F)c2Cl)cc1C(F)(F)F` [Compound 36, 3,5-Dichloro-2,6-difluoro-4(4-nitro-3-trifluoromethylanilino) pyridine], the “Amount … disease B (Table 4)” value [9] was 2 (6 to 25), the “Amount … disease C (Table 4)” value [10] was 3 (0 to 5) and the “Amount … disease D (Table 4)” value (Uncinula necator (vine)) was 0 (61 to 100). The “Amount … disease E (Table 4)” value [11] was 1 (26 to 60) and the “Amount … disease A (Table 4)” value [12] was 2 (6 to 25).
In the case of `O=[N+]([O-])c1ccc(Nc2c(F)c(F)nc(F)c2Cl)c([N+](=O)[O-])c1` [Compound 38, 3-Chloro-4(2,4-dinitroanilino)-2,5,6-trifluoropyridine], the “Mortality grading (kill)” value [1] is reported as 3 (3 represents over 90% kill), the “Mortality grading (kill)” value (Aphis fabae) is reported as 0 (O represents less than 30% kill) and the “Mortality grading (kill)” value ([2]; in vivo) is reported as 0 (key: O represents less than 30% kill; 1 represents 30 - 49% kill; 2 represents 60 - 90% kill; 3 represents over 90% kill; C indicates a chemosterilant effect.; A indicates an antifeeding effect.). For the same molecule, the “Mortality grading (kill)” value [3] was 3 (3 represents over 90% kill), the “Amount … disease C (Table 4)” value [10] was 3 (0 to 5) and the “Damage to plants, post-emergence” value (Maize; [15]) was 0. The “Damage to plants, pre-emergence” value (Maize; [15]) was 0, the “Mortality grading (kill), contact test” value [4] was 0 (O represents less than 30% kill) and the “Mortality grading (kill)” value [5] was 0 (O represents less than 30% kill). For the same molecule, the “Amount … disease D (Table 4)” value (Uncinula necator (vine)) was 3 (0 to 5), the “Damage to plants, post-emergence” value (Wheat; [15]) was 0 and the “Damage to plants, pre-emergence” value (Wheat; [15]) was 2. For the same molecule, the “Mortality grading (kill)” value [6] was 3 (3 represents over 90% kill), the “Damage to plants, post-emergence” value (Lettuce; [15]) was 3 and the “Damage to plants, pre-emergence” value (Lettuce; [15]) was 3. For the same molecule, the “Damage to plants, post-emergence” value (Tomato; [15]) was 3, the “Damage to plants, pre-emergence” value (Tomato; [15]) was 3 and the “Amount … disease E (Table 4)” value [11] was 2 (6 to 25). The “Amount … disease A (Table 4)” value [12] was 1 (26 to 60), the “Mortality grading (kill)” value ([7]; in vivo) was 0 (key: O represents less than 30% kill; 1 represents 30 - 49% kill; 2 represents 60 - 90% kill; 3 represents over 90% kill; C indicates a chemosterilant effect.; A indicates an antifeeding effect.) and the “Mortality grading (kill)” value [8] was 3 (3 represents over 90% kill). The “Mortality grading (kill)” value (Megoura viceae) was 0 (O represents less than 30% kill).
In the case of `O=[N+]([O-])c1cc([N+](=O)[O-])c(Nc2c(F)c(F)nc(F)c2F)cc1F` [Compound 39, 4(2,4-Dinitro-5-fluoranilino)tetrafluoropyridine], the “Amount … disease B (Table 4)” value [9] is reported as 2 (6 to 25), the “Amount … disease C (Table 4)” value [10] is reported as 3 (0 to 5) and the “Amount … disease D (Table 4)” value (Uncinula necator (vine)) is reported as 0 (61 to 100). The “Amount … disease E (Table 4)” value [11] was 1 (26 to 60) and the “Amount … disease A (Table 4)” value [12] was 1 (26 to 60).
`CNC(=O)N(c1c(F)c(F)c(C#N)c(F)c1F)c1c(Cl)c(F)nc(OC)c1Cl` [Compound 46] was tested, and the “Mortality grading (kill)” value [1] was 0 (O represents less than 30% kill), the “Mortality grading (kill)” value (Aphis fabae) was 0 (O represents less than 30% kill) and the “Mortality grading (kill)” value [2, 13] was 0 (O represents less than 30% kill). The “Mortality grading (kill)” value [3] was 0 (O represents less than 30% kill), the “Mortality grading (kill), contact test” value [4] was 0 (O represents less than 30% kill) and the “Mortality grading (kill)” value [5] was 0 (O represents less than 30% kill). The “Mortality grading (kill)” value [6] was 2 (2 represents 60 - 90% kill), the “Mortality grading (kill)” value [7, 13] was 0 (O represents less than 30% kill) and the “Mortality grading (kill)” value [8] was 3 (3 represents over 90% kill). The “Mortality grading (kill)” value (Megoura viceae) was 0 (O represents less than 30% kill).
